According to patent US8962681B2, “Use of aminoacetonitrile derivatives against endoparasites” (Zoetis LLC, priority 2011, dated 2015):

What follows are compounds tested on Dirofilaria immitis microfilariae (assay: in vitro microwell motility assay against heartworm microfilariae). Details: microfilaria from canine blood, 384 well plate, 72 hours incubation at 37° C. and 5% CO2, LemnaTec Scanalyzer.
Type: cell-based

`CC(C#N)(COc1ccc(-c2cccnc2)cc1C(F)(F)F)NC(=O)c1ccc(S(F)(F)(F)(F)F)cc1` (centres unmarked) [test compound 82, N-{1-cyano-1-methyl-2-[4-pyridin-3-yl-2-(trifluoromethyl)phenoxy]ethyl}-4-(pentafluorothio)benzamide] and `CC(C#N)(COc1c(F)cc(C#N)cc1C(F)(F)F)NC(=O)c1ccc(S(F)(F)(F)(F)F)cc1` (centres unmarked) [test compound 26, N-{1-cyano-2-[4-cyano-2-fluoro-6-(trifluoromethyl)phenoxy]-1-methylethyl}-4-(pentafluorothio)benzamide] are the same in “ED50 (dose at which the overall microfilaria motility was reduced by 50% compared to that of an untreated control)” value: 10 µM for the first, 10 µM for the second.

First: Cc1cc(C#N)ccc1OCC(C)(C#N)NC(=O)c1ccc(S(F)(F)(F)(F)F)cc1 (centres unmarked) [test compound 40, N-[1-cyano-2-(4-cyano-2-methylphenoxy)-1-methylethyl]-4-(pentafluorothio)-benzamide]
Second: Cc1ccc(Oc2ccc(C#N)cc2OCC(C)(C#N)NC(=O)c2ccc(S(F)(F)(F)(F)F)cc2)c(C)c1 (centres unmarked) [test compound 72, N-{1-cyano-2-[5-cyano-2-(2,4-dimethylphenoxy)phenoxy]-1-methylethyl}-4-(pentafluorothio)benzamide]
The “ED50 (dose at which the overall microfilaria motility was reduced by 50% compared to that of an untreated control)” value of the first is 10-fold higher: 10 µM for the first, 1 µM for the second.

`CC(C#N)(COc1ccc(Br)cc1F)NC(=O)c1ccc(S(F)(F)(F)(F)F)cc1` (centres unmarked) [test compound 32, N-[2-(4-bromo-2-fluorophenoxy)-1-cyano-1-methylethyl]-4-(pentafluorothio)-benzamide] and `CC(C#N)(COc1cc(F)c(F)cc1Br)NC(=O)c1ccc(S(F)(F)(F)(F)F)cc1` (centres unmarked) [test compound 58, N-[2-(2-bromo-4,5-difluorophenoxy)-1-cyano-1-methylethyl]-4-(pentafluorothio)benzamide] are the same in “ED50 (dose at which the overall microfilaria motility was reduced by 50% compared to that of an untreated control)” value: 33 µM for the first, 33 µM for the second.

Compared with `COc1ccc(Oc2ccc(C#N)cc2OCC(C)(C#N)NC(=O)c2ccc(S(F)(F)(F)(F)F)cc2)c(Cl)c1` (centres unmarked) [test compound 75, N-{2-[2-(2-chloro-4-methoxyphenoxy)-5-cyanophenoxy]-1-cyano-1-methylethyl}-4-(pentafluorothio)benzamide], `CC(C#N)(COc1cc(C#N)ccc1Oc1ccc(Cl)cc1F)NC(=O)c1ccc(S(F)(F)(F)(F)F)cc1` (centres unmarked) [test compound 62, N-{2-[2-(4-chloro-2-fluorophenoxy)-5-cyanophenoxy]-1-cyano-1-methylethyl}-4-(pentafluorothio)benzamide] is 3.3-fold lower in “ED50 (dose at which the overall microfilaria motility was reduced by 50% compared to that of an untreated control)” value: 3.3 µM for the first, 1 µM for the second.

First: COc1ccc(Oc2ccc(C#N)cc2OCC(C)(C#N)NC(=O)c2ccc(S(F)(F)(F)(F)F)cc2)cc1 (centres unmarked) [test compound 66, N-{1-cyano-2-[5-cyano-2-(4-methoxyphenoxy)phenoxy]-1-methylethyl}-4-(pentafluorothio)benzamide]
Second: CC(C#N)(COc1cc(C#N)ccc1Oc1ccc(F)cc1)NC(=O)c1ccc(S(F)(F)(F)(F)F)cc1 (centres unmarked) [test compound 61, N-{1-cyano-2-[5-cyano-2-(4-fluorophenoxy)phenoxy]-1-methylethyl}-4-(pentafluorothio)benzamide]
The “ED50 (dose at which the overall microfilaria motility was reduced by 50% compared to that of an untreated control)” value of the first is 3.3-fold higher: 3.3 µM for the first, 1 µM for the second.

For `CC(C#N)(Cc1ccc(C#N)cc1Cl)NC(=O)c1ccc(S(F)(F)(F)(F)F)cc1` (centres unmarked) [test compound 90, N-[2-(2-chloro-4-cyanophenyl)-1-cyano-1-methylethyl]-4-(pentafluorothio)benzamide], the “ED50 (dose at which the overall microfilaria motility was reduced by 50% compared to that of an untreated control)” value was 33 µM.
